# According to patent US20240398828A1, “HETERO-ATOM CONTAINING COMPOUNDS AND USES THEREOF” (Kumquat Biosciences Inc., priority 2021, published 2024):
# Assays:
# PTPN1 (i.e., PTP1B) = target: T1, PTPN1 (i.e., PTP1B) (Homo sapiens, UniProt P18031); test: Phosphatase activity assay (DiFMUP substrate), PTP1B; type: biochemical; conditions: compounds binned ≤1 uM or >1 uM
# T1 sequence (P18031 1-435): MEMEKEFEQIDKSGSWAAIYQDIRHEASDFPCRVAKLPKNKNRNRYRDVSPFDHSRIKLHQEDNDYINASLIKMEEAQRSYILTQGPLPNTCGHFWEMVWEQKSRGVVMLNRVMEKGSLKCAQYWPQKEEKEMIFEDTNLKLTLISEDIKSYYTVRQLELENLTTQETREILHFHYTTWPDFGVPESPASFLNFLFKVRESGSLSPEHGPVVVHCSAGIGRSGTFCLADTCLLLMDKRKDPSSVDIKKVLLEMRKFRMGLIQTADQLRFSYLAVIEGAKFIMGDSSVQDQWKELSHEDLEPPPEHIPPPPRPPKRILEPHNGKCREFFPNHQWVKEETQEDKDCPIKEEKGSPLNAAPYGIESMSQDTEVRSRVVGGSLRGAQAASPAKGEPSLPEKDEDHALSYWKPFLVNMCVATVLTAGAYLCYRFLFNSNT
# Experimental: (§1) The selectivity and potency of a small molecule PTPN2 inhibitor as provided herein against one or more protein tyrosine phosphatase (PTP) enzymes, and specifically against PTPN2, is assessed in various ways. The one or more PTP enzymes comprise Mycobacterium protein tyrosine phosphatase A (mPTPA), Mycobacterium protein tyrosine phosphatase B (mPTPB), PTPN1 (i.e., PTP1B), PTPN2 (i.e., TC-PTP), PTPN22 (i.e., LYP), SHP-1, SHP-2, FAP-1, Meg2, HePTP, Laforin, VHX, VHR, LMWPTP, Cdc14A, LAR, CD45, PTPRG, a fragment thereof, a variant thereof, and a combination thereof. Selectivity and potency of a small molecule PTPN2 inhibitor is evaluated using a PTP activity inhibition assay. The assay is performed using a buffer comprising 50 mM HEPES buffer pH 7.5, 150 mM NaCl, 0.5 mM EDTA, 1 mM DTT, 0.001% Tween-20.
# (§2) The assay is performed using a phosphated substrate, e.g., 10 mM 6,8-Difluoro-4-Methylumbelliferyl Phosphate (DIFMUP) that is stored at −20° C. Alternatively or in addition to, the assay is performed using other phosphated substrate (e.g., fluorescein diphosphate). Each PTP enzyme is diluted in the assay buffer
# (§3) The assay can be carried out at room temperature in multiplate format, e.g., using 384 well plates. A small molecule PTPN2 inhibitor dissolved in DMSO at one of 10 concentrations from a serial dilution or DMSO alone for control is added to each well. A mixture of the assay buffer comprising PTP enzyme (e.g., 0.025 ng/ul PTPN2) is added to each well and mixed for approximately 2 minutes. The reaction is initiated by adding DiFMUP diluted in the assay buffer to a final concentration of approximately 45 μM DiFMUP in PTPN2 assay. For each PTP enzyme, DiFMUP is added at the Km (Michaelis constant) of the enzyme that had been independently determined. The phosphatase activity of the PTP enzyme is assessed by monitoring appearance of a fluorescent product (6,8-difluoro-7-hydroxyl-4-coumarin (DiFMU) from DiFMUP) continuously for about 15 to 30 minutes, using the INFINITE M1000Pro plate reader (Tecan) with excitation at 360 nm and emission at 450 nm (cutoff filter at 435 nm) for DiFMU. Each assay is performed at least in duplicate. The rate (e.g., the initial rate) of DiFMU formation is plotted against the concentration of the small molecule PTPN2 inhibitor, and the data is fitted (e.g., using a 4-parameter equation) to determine the inflection point of the fit as the IC50 of the small molecule PTPN2 inhibitor for a specific enzyme. Utilizing this assay, the ability of the compounds in Table 2 to inhibit PTPN2 and PTP1B has been assessed. Table 3 summarizes the IC50 values.
# PTPN2 (i.e., TC-PTP) = target: T2, PTPN2 (i.e., TC-PTP) (Homo sapiens, UniProt P17706); test: Phosphatase activity assay (DiFMUP substrate), PTPN2; type: biochemical; conditions: compounds binned ≤1 uM or >1 uM
# T2 sequence (P17706 1-415): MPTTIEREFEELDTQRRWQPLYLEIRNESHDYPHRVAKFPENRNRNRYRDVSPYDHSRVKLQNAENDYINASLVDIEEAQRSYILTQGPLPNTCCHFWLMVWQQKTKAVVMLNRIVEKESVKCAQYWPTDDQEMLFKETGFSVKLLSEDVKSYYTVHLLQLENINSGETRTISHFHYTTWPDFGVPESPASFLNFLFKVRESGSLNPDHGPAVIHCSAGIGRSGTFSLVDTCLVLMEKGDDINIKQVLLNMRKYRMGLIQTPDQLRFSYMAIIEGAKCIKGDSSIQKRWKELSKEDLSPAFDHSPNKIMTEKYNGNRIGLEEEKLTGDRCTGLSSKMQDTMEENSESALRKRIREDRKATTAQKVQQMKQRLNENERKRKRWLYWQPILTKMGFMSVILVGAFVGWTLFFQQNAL
# Experimental: as §1, §2, §3
"IC50 (PTPN1 (i.e., PTP1B))","IC50 (PTPN2 (i.e., TC-PTP))",Structure (SMILES)
≤ 1000 nM,≤ 1000 nM,"O=C1CN(c2c(O)ccc(-c3cc(C4CCCCC4)n[nH]3)c2F)S(=O)(=O)N1 [Compound 371, 5-(3-(3-cyclohexyl-1H-pyrazol-5-yl)-2-fluoro-6-hydroxyphenyl)-1,2,5-thiadiazolidin-3-one 1,1-dioxide]"
≤ 1000 nM,≤ 1000 nM,"O=C1CN(c2c(O)ccc(-c3cn(C4CC4)cn3)c2F)S(=O)(=O)N1 [Compound 176, 5-(3-(1-cyclopropyl-1H-imidazol-4-yl)-2-fluoro-6-hydroxyphenyl)-1,2,5-thiadiazolidin-3-one 1,1-dioxide]"
≤ 1000 nM,≤ 1000 nM,"CC(C)CNc1ccc(-c2ccc(O)c(N3CC(=O)NS3(=O)=O)c2F)cc1 [Compound 193, 5-(2-fluoro-4-hydroxy-4′-(isobutylamino)-[1,1′-biphenyl]-3-yl)-1,2,5-thiadiazolidin-3-one 1,1-dioxide]"
≤ 1000 nM,≤ 1000 nM,"O=C1CN(c2c(O)ccc(-c3cn(-c4cc(F)cc(F)c4)cn3)c2F)S(=O)(=O)N1 [Compound 265, 5-(3-(1-(3,5-difluorophenyl)-1H-imidazol-4-yl)-2-fluoro-6-hydroxyphenyl)-1,2,5-thiadiazolidin-3-one 1,1-dioxide]"
≤ 1000 nM,≤ 1000 nM,"CC(C)CCCc1cc(-c2ccc(O)c(N3CC(=O)NS3(=O)=O)c2F)[nH]n1 [Compound 290, 5-(2-fluoro-6-hydroxy-3-(3-(4-methylpentyl)-1H-pyrazol-5-yl)phenyl)-1,2,5-thiadiazolidin-3-one 1,1-dioxide]"
≤ 1000 nM,≤ 1000 nM,"O=C1CN(c2c(O)ccc(-c3cc(N4CCCC4)n[nH]3)c2F)S(=O)(=O)N1 [Compound 343, 5-(2-fluoro-6-hydroxy-3-(3-(pyrrolidin-1-yl)-1H-pyrazol-5-yl)phenyl)-1,2,5-thiadiazolidin-3-one 1,1-dioxide]"
> 1000 nM,> 1000 nM,"CC(C)CCn1cc(-c2ccc(O)c(N3CC(=O)NS3(=O)=O)n2)cn1 [Compound 134, 5-(3-hydroxy-6-(1-isopentyl-1H-pyrazol-4-yl)pyridin-2-yl)-1,2,5-thiadiazolidin-3-one 1,1-dioxide]"
≤ 1000 nM,≤ 1000 nM,"O=C1CN(c2c(O)ccc(-c3ccc(-c4ccccc4)nc3)c2F)S(=O)(=O)N1 [Compound 120, 5-(2-fluoro-6-hydroxy-3-(6-phenylpyridin-3-yl)phenyl)-1,2,5-thiadiazolidin-3-one 1,1-dioxide]"
≤ 1000 nM,≤ 1000 nM,"Cc1cc(-c2ccc(O)c(N3CC(=O)NS3(=O)=O)c2F)nn1C [Compound 454, 5-(3-(1,5-dimethyl-1H-pyrazol-3-yl)-2-fluoro-6-hydroxyphenyl)-1,2,5-thiadiazolidin-3-one 1,1-dioxide]"
> 1000 nM,> 1000 nM,"O=C1CN(c2c(O)ccc(-n3cc(C4CC4)cn3)c2F)S(=O)(=O)N1 [Compound 270, 5-(3-(4-cyclopropyl-1H-pyrazol-1-yl)-2-fluoro-6-hydroxyphenyl)-1,2,5-thiadiazolidin-3-one 1,1-dioxide]"
≤ 1000 nM,≤ 1000 nM,"CC(C)CCn1ccc(-c2ccc(O)c(N3CC(=O)NS3(=O)=O)c2F)n1 [Compound 196, 5-(2-fluoro-6-hydroxy-3-(1-isopentyl-1H-pyrazol-3-yl)phenyl)-1,2,5-thiadiazolidin-3-one 1,1-dioxide]"
≤ 1000 nM,≤ 1000 nM,"O=C1CN(c2c(O)ccc(-c3cn(C4CCC(F)(F)CC4)cn3)c2F)S(=O)(=O)N1 [Compound 268, 5-(3-(1-(4,4-difluorocyclohexyl)-1H-imidazol-4-yl)-2-fluoro-6-hydroxyphenyl)-1,2,5-thiadiazolidin-3-one 1,1-dioxide]"
≤ 1000 nM,≤ 1000 nM,"O=C1CN(c2c(O)ccc(-c3cccc(NS(=O)(=O)C4CC4)c3)c2F)S(=O)(=O)N1 [Compound 449, N-(3′-(1,1-dioxido-4-oxo-1,2,5-thiadiazolidin-2-yl)-2′-fluoro-4′-hydroxy-[1,1′-biphenyl]-3-yl)cyclopropanesulfonamide]"
≤ 1000 nM,≤ 1000 nM,"O=C1CN(c2c(O)ccc(-c3cnn(CCC(F)F)c3)c2F)S(=O)(=O)N1 [Compound 510, 5-(3-(1-(3,3-difluoropropyl)-1H-pyrazol-4-yl)-2-fluoro-6-hydroxyphenyl)-1,2,5-thiadiazolidin-3-one 1,1-dioxide]"
≤ 1000 nM,≤ 1000 nM,"CN1CC(n2cc(-c3ccc(O)c(N4CC(=O)NS4(=O)=O)c3F)cn2)C1 [Compound 310, 5-(2-fluoro-6-hydroxy-3-(1-(1-methylazetidin-3-yl)-1H-pyrazol-4-yl)phenyl)-1,2,5-thiadiazolidin-3-one 1,1-dioxide]"
≤ 1000 nM,≤ 1000 nM,"N#CCn1nc(-c2ccc(O)c(N3CC(=O)NS3(=O)=O)c2F)cc1C1CC1 [Compound 349, 2-(5-cyclopropyl-3-(3-(1,1-dioxido-4-oxo-1,2,5-thiadiazolidin-2-yl)-2-fluoro-4-hydroxyphenyl)-1H-pyrazol-1-yl)acetonitrile]"
≤ 1000 nM,≤ 1000 nM,"Cc1cn(-c2ccc(O)c(N3CC(=O)NS3(=O)=O)c2F)nc1O [Compound 299, 5-(2-fluoro-6-hydroxy-3-(3-hydroxy-4-methyl-1H-pyrazol-1-yl)phenyl)-1,2,5-thiadiazolidin-3-one 1,1-dioxide]"
≤ 1000 nM,≤ 1000 nM,"O=C1CN(c2c(O)ccc(-c3cnn(C4CCCCC4)c3)c2F)S(=O)(=O)N1 [Compound 160, 5-(3-(1-cyclohexyl-1H-pyrazol-4-yl)-2-fluoro-6-hydroxyphenyl)-1,2,5-thiadiazolidin-3-one 1,1-dioxide]"
≤ 1000 nM,≤ 1000 nM,"O=C1CN(c2c(O)ccc(-c3ccnc(OCC4CC4)c3)c2F)S(=O)(=O)N1 [Compound 167, 5-(3-(2-(cyclopropylmethoxy)pyridin-4-yl)-2-fluoro-6-hydroxyphenyl)-1,2,5-thiadiazolidin-3-one 1,1-dioxide]"
≤ 1000 nM,≤ 1000 nM,"CC(C)CCn1cc(-c2ccc(O)c(N3CC(=O)NS3(=O)=O)c2F)c(=O)[nH]1 [Compound 444, 5-(2-fluoro-6-hydroxy-3-(1-isopentyl-3-oxo-2,3-dihydro-1H-pyrazol-4-yl)phenyl)-1,2,5-thiadiazolidin-3-one 1,1-dioxide]"
≤ 1000 nM,≤ 1000 nM,"O=C1CN(c2c(O)ccc(C3=CC(CC4CC4)NC3)c2F)S(=O)(=O)N1 (centres unmarked) [Compound 522, 5-(3-(5-(cyclopropylmethyl)-2,5-dihydro-1H-pyrrol-3-yl)-2-fluoro-6-hydroxyphenyl)-1,2,5-thiadiazolidin-3-one 1,1-dioxide]"
≤ 1000 nM,≤ 1000 nM,"N#CNC(=N)N1CCC=C(c2ccc(O)c(N3CC(=O)NS3(=O)=O)c2F)C1 [Compound 535, N-cyano-5-(3-(1,1-dioxido-4-oxo-1,2,5-thiadiazolidin-2-yl)-2-fluoro-4-hydroxyphenyl)-3,6-dihydropyridine-1(2H)-carboximidamide]"
